Experimental data as given in patent US12612465B2, “Formulations comprising PCSK9 specific monoclonal antibodies” (Amgen Inc., priority 2012, dated 2026).

Tested on: PCSK9
Experiment: Serum lipids after a single subcutaneous dose in cynomolgus monkeys
Type: in vivo, cynomolgus monkey
Settings: 0.5 mg/kg single SC
Source text: Briefly, naive male cynomolgus monkeys were acclimated to their environment for at least 2 weeks prior to experimentation. Animals were randomized into treatment groups based on a pre-screen of their serum TC, HDL-C, LDL-C, and triglyceride levels, and their body weight. After 1 week, animals were fasted overnight, and bled from the peripheral vasculature (cephalic or saphenous vein), for measurement of baseline serum lipid levels at a time point designated T=0. […] Fasting blood samples were then collected from animals at designated time points over a 45 day period.
At specified time points, blood was collected from animals under overnight fasting conditions from the peripheral vasculature (cephalic or saphenous vein). Whole blood was allowed to coagulate for 30 minutes at room temperature. Following centrifugation at 3,000 rpm for 20 minutes, serum was collected. Direct serum cholesterol analysis was performed using the Cobas Integra 400 analyzer (Roche Diagnostics Inc, Indianapolis, Ind.). Apolipoprotein B serum levels were determined at specified time points (day 0, 3, 6, 15, 24 and 33) by Anilytics, Md., with the following methodology. A 17 μL aliquot of the sample (no preparation) was used for analysis with a Hitachi 717 Analyzer using a 6 points standard curve. If the initial value of the sample was higher than the standard curve linearity, then the sample was diluted and repeated with the result multiplied by the appropriate dilution factor. The reagents for the assay (APO-B Reagent Kit #86071, Antibody Set #86060, Control Set #86103) were obtained from DiaSorin (Stillwater, Minn.).
A statistical model that considers baseline as a covariate and treatment group as a fixed effect was fit to the log transformed response at each time point for LDL-C, HDL-C, TC, and triglycerides. Tukey's multiple comparison correction was applied to adjust the pair wise comparisons at each time point. The statistical significance was evaluated at alpha=0.05 using adjusted p-values.

11F1: anti-PCSK9 ABP, light/heavy variable region SEQ ID NO 465/463 [Antibody 11F1]
TC returned to levels similar to control animals: ≤ 27 days | maximal LDL-C lowering as compared to control animals: 57% | maximal TC lowering as compared to control animals: 27% | maximal lowering of LDL-C vs anti-KLH IgG2 control at the same time point (change): −57% | serum HDL-C vs anti-KLH IgG2 control: No statistically significant changes | time of maximal LDL-C lowering after injection: 9 days | time of maximal TC lowering after injection: 9 days | triglycerides levels vs anti-KLH IgG2 control: No statistically significant changes | serum ApoB vs anti-KLH IgG2 control (days 3, 6, 15, 24 and 33): ApoB lowering at days 3 to 24 | HDL-C or triglyceride levels vs anti-KLH IgG2 control (each time point, alpha=0.05): not significantly different
